US12220400B2, “Amino acid compositions and methods for treating cystic fibrosis” (UNIVERSITY OF FLORIDA RESEARCH FOUNDATION, INCORPORATED, priority 2018, dated 2025)

Tested on: HBEC-F508del
Test: Transepithelial short-circuit anion current in HBEC-F508del, Example 3
Format: cell-based, human
Description: Methods: Transepithelial short-circuit current and ^36Cl net flux (Jnet) were measured in differentiated HBEC-F508del bathed in vehicle (no AA), AA test formulation (CF5AA-3) or AA negative control (NC; CF4AA-3) in Ussing chambers. Cells were treated with C18 (VX809-analogue), VX661 or DMSO for 24 hours. After blocking ENaC with benzamil, chloride secretion was stimulated using GLPG1837 (VX770-analogue) with or without forskolin. CFTRinh-172, CaCCinh-A01 or bumetanide were added to distinguish CFTR-, TMEM16A- and NKCC1-sensitive chloride currents, respectively. Western blot was performed on HBEC-F508del membrane fractions to determine apical CFTR expression.

Question: Which results are given for `CC(C)(CO)c1cc2cc(NC(=O)C3(c4ccc5c(c4)OC(F)(F)O5)CC3)c(F)cc2n1C[C@@H](O)CO` [VX661, tezacaftor]?
Answer: basal anion current (corrector pretreatment 24 hours, cells bathed in vehicle (no AA)): 1.5±0.2 μA; peak anion current after stimulation with forskolin and GLPG1837 (forskolin and GLPG1837): 7.9±0.7 μA
